1 molecule from ChEMBL document CHEMBL4251622, “Design, synthesis, and biological evaluation of polo-like kinase 1/eukaryotic elongation factor 2 kinase (PLK1/EEF2K) dual inhibitors for regulating breast cancer cells apoptosis and autophagy” (Eur J Med Chem, 2018) can be followed below.

Series [1] addresses Serine/threonine-protein kinase PLK1 (Homo sapiens, UniProt P53350). Nature of the series: Inhibition of full length human PLK1 at 20 uM using casein as substrate after 40 mins in presence of [gamma-33P]-ATP by radiometric assay relative to control.
The target in series [2] is T1, Eukaryotic elongation factor 2 kinase (Homo sapiens) (UniProt O00418).
T1 sequence (whole entry): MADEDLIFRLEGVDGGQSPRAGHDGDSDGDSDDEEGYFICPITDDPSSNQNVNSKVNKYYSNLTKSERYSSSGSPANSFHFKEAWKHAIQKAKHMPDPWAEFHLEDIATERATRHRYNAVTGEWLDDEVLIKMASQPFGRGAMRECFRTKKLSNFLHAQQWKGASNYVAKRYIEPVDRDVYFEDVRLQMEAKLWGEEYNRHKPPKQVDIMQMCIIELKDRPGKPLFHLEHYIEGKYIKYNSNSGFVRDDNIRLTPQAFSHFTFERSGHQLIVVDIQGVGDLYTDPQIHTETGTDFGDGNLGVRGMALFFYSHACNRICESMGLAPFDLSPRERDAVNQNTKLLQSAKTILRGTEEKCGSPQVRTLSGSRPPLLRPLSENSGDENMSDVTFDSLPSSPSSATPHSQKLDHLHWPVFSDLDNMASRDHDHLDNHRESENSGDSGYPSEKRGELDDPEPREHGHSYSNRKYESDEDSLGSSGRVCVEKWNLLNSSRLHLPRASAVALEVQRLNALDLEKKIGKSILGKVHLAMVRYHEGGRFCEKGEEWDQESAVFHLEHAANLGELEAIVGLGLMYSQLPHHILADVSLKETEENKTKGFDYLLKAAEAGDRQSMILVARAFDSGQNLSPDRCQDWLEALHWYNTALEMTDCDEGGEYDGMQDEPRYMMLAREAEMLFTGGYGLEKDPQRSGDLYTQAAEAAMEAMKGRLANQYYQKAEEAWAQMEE
Description: Inhibition of GST-tagged EEF2K (unknown origin) at 20 uM using biotinylated EEF2 peptide substrate by HTRF assay relative to control. A general note: In TR-FRET formats the signal depends on donor and acceptor labels being close together.

Series [3] addresses T1, Eukaryotic elongation factor 2 kinase (Homo sapiens). Nature of the series: Inhibition of EEF2K-meidated EEF2 phosphorylation in human BT-483 cells at 5 to 10 uM by Western blot analysis. Type of series: cell-based. In general terms: In western blotting, separated proteins are transferred to a membrane and probed.
The test system of another series is BT-483. Description: Effect on total EEF2K protein expression in human BT-483 cells at 5 to 10 uM by Western blot analysis. In kind it is ADME, cell-based. The note with it: bt-483, 10 µM.
Series [4] concerns Serine/threonine-protein kinase B-raf (Homo sapiens), P15056 [V600E]. Nature of the series: Inhibition of human partial length BRAF V600E mutant (S429 to E741 residues) expressed in mammalian expression system assessed as residual activity at 1 uM by Kinomescan method relative to control.
Series [5] addresses Cyclin-dependent kinase 2 (Homo sapiens) (UniProt P24941). Description: Inhibition of wild-type human full length CDK2 (M1 to L298 residues) expressed in bacterial expression system assessed as residual activity at 1 uM by Kinomescan method relative to control.
Series [6] addresses Receptor tyrosine-protein kinase erbB-2 (Homo sapiens) (UniProt P04626). Nature of the series: Inhibition of wild-type human partial length ERBB2 (K646 to V1225 residues) expressed in mammalian expression system assessed as residual activity at 1 uM by Kinomescan method relative to control.
The target in series [7] is Mitogen-activated protein kinase 1 (Homo sapiens) (UniProt P28482). Description: Inhibition of wild-type human full length ERK2 (M1 to S360 residues) expressed in bacterial expression system assessed as residual activity at 1 uM by Kinomescan method relative to control.
Series [8] has as its target Focal adhesion kinase 1 (Homo sapiens) (UniProt Q05397). Nature of the series: Inhibition of wild-type human partial length FAK (D402 to R696 residues) expressed in bacterial expression system assessed as residual activity at 1 uM by Kinomescan method relative to control.
Series [9] has as its target Tyrosine-protein kinase JAK3 (Homo sapiens) (UniProt P52333). Description: Inhibition of wild-type human partial length JAK3 JH1 catalytic domain (I781 to S1124 residues) expressed in mammalian expression system assessed as residual activity at 1 uM by Kinomescan method relative to control.
The target in series [10] is Mitogen-activated protein kinase 10 (Homo sapiens) (UniProt P53779). Description: Inhibition of wild-type human partial length JNK3 (V28 to Q422 residues) expressed in mammalian expression system assessed as residual activity at 1 uM by Kinomescan method relative to control.
For series [11], the target named is Mast/stem cell growth factor receptor Kit (Homo sapiens) (UniProt P10721). Description: Inhibition of wild-type human partial length KIT (I571 to D952 residues) expressed in bacterial expression system assessed as residual activity at 1 uM by Kinomescan method relative to control.
The target of series [12] is Serine/threonine-protein kinase STK11 (Homo sapiens) (UniProt Q15831). Description: Inhibition of wild-type human full length LKB1 (M1 to Q433 residues) expressed in bacterial expression system assessed as residual activity at 1 uM by Kinomescan method relative to control.
Series [13] has as its target Dual specificity mitogen-activated protein kinase kinase 1 (Homo sapiens) (UniProt Q02750). Nature of the series: Inhibition of wild-type human full length MEK1 (M1 to V393 residues) expressed in mammalian expression system assessed as residual activity at 1 uM by Kinomescan method relative to control.
In series [14] the target is Serine/threonine-protein kinase RIO2 (Homo sapiens) (UniProt Q9BVS4). Description: Inhibition of wild-type human partial length RIOK2 (M1 to D313 residues) expressed in mammalian expression system assessed as residual activity at 1 uM by Kinomescan method relative to control.
Series [15] has as its target Receptor-interacting serine/threonine-protein kinase 1 (Homo sapiens) (UniProt Q13546). Description: Inhibition of wild-type human partial length RIPK1 (M1 to K305 residues) expressed in bacterial expression system assessed as residual activity at 1 uM by Kinomescan method relative to control.
Series [16] deals with TGF-beta receptor type-1 (Homo sapiens) (UniProt P36897). Nature of the series: Inhibition of wild-type human partial length TGFBR1 (D179 to M503 residues) expressed in bacterial expression system assessed as residual activity at 1 uM by Kinomescan method relative to control.
The target in series [17] is Vascular endothelial growth factor receptor 2 (Homo sapiens) (UniProt P35968). Description: Inhibition of wild-type human partial length VEGFR2 (R787 to P1253 residues) expressed in mammalian expression system assessed as residual activity at 1 uM by Kinomescan method relative to control.
Series [18] concerns the target Tyrosine-protein kinase ZAP-70 (Homo sapiens) (UniProt P43403). Nature of the series: Inhibition of wild-type human partial length ZAP70 (D20 to G299 residues) expressed in mammalian expression system assessed as residual activity at 1 uM by Kinomescan method relative to control.
The target of series [19] is Casein kinase I isoform delta (Homo sapiens) (UniProt P48730). Description: Inhibition of wild-type human full length CSNK1D (M1 to K409 residues) expressed in bacterial expression system assessed as residual activity at 1 uM by Kinomescan method relative to control.
The target of series [20] is Mitogen-activated protein kinase kinase kinase 7 (Homo sapiens) (UniProt O43318). Nature of the series: Inhibition of wild-type human partial length TAK1 (M1 to Q303 residues) expressed in mammalian expression system assessed as residual activity at 1 uM by Kinomescan method relative to control.

The source made the active and inactive calls. The calls are words filed in the database; no cut-off is given here.

What is called inhibition is the share of the control response that was lost under treatment.

Focal adhesion kinase 1 (Homo sapiens), sequence (Q05397 2-1052 limits assumed): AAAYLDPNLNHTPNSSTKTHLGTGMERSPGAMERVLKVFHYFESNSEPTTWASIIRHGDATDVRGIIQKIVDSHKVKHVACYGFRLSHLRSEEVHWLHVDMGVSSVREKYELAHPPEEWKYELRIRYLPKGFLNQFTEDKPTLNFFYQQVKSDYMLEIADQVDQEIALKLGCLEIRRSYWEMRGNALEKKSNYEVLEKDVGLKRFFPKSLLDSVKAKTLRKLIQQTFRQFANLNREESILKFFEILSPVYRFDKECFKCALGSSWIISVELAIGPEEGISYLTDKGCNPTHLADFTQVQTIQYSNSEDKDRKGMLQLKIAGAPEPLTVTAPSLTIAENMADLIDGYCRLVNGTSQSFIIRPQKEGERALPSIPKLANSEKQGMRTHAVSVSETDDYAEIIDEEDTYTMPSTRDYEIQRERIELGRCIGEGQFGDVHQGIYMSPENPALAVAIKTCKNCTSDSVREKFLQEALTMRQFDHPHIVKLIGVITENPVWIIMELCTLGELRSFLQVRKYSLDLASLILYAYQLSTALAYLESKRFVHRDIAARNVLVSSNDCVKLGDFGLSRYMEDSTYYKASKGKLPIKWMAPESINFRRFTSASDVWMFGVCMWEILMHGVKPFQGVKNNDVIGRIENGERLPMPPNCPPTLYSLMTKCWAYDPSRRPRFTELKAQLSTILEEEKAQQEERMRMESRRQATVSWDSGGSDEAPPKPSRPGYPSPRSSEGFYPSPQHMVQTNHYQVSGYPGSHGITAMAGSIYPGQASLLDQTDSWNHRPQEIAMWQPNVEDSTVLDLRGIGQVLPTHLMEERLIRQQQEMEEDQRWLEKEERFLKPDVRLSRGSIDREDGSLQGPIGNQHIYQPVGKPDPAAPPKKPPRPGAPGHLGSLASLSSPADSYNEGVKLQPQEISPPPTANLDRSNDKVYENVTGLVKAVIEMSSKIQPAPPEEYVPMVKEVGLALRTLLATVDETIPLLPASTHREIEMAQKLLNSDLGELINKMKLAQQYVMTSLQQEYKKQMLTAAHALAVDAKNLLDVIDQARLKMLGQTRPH
Serine/threonine-protein kinase B-raf (Homo sapiens), P15056 [V600E], sequence (P15056 whole entry V600E, the tested form may be a part): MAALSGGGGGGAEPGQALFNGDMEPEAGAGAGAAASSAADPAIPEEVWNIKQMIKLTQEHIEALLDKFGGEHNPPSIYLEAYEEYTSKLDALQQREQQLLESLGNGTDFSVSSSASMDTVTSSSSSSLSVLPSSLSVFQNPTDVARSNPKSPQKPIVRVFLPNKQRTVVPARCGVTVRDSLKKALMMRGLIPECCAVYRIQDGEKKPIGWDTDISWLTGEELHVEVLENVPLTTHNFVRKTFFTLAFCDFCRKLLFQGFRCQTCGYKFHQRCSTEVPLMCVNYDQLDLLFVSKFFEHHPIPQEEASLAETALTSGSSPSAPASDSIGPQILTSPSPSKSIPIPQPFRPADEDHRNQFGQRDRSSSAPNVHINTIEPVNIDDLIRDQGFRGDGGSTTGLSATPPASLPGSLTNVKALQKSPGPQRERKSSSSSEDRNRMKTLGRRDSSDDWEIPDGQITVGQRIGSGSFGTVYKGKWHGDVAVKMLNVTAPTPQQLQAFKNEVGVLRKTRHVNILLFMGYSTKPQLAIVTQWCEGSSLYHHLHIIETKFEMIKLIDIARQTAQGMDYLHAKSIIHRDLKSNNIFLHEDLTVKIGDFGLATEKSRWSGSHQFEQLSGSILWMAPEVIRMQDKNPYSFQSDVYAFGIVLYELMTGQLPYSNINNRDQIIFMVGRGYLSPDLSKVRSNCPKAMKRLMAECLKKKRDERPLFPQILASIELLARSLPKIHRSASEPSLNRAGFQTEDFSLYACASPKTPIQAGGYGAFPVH
Mitogen-activated protein kinase kinase kinase 7 (Homo sapiens), sequence (O43318 whole entry, the tested form may be a part): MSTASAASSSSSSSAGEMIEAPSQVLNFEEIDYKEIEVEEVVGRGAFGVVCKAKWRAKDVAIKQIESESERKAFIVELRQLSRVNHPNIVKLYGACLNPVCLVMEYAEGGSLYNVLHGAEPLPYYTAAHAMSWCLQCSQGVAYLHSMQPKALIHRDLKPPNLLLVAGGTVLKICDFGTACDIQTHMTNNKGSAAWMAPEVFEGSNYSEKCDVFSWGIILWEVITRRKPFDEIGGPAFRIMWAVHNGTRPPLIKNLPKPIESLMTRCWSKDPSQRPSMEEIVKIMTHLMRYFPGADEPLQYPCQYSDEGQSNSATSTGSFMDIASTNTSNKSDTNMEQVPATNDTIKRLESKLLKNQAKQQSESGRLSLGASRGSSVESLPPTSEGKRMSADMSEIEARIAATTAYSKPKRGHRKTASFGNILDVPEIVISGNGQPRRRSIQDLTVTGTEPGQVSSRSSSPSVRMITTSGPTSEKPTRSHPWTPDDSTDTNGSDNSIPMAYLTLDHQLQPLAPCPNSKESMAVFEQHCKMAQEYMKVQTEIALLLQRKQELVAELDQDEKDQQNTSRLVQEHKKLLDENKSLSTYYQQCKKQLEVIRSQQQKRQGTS
Vascular endothelial growth factor receptor 2 (Homo sapiens), sequence (P35968 whole entry, the tested form may be a part): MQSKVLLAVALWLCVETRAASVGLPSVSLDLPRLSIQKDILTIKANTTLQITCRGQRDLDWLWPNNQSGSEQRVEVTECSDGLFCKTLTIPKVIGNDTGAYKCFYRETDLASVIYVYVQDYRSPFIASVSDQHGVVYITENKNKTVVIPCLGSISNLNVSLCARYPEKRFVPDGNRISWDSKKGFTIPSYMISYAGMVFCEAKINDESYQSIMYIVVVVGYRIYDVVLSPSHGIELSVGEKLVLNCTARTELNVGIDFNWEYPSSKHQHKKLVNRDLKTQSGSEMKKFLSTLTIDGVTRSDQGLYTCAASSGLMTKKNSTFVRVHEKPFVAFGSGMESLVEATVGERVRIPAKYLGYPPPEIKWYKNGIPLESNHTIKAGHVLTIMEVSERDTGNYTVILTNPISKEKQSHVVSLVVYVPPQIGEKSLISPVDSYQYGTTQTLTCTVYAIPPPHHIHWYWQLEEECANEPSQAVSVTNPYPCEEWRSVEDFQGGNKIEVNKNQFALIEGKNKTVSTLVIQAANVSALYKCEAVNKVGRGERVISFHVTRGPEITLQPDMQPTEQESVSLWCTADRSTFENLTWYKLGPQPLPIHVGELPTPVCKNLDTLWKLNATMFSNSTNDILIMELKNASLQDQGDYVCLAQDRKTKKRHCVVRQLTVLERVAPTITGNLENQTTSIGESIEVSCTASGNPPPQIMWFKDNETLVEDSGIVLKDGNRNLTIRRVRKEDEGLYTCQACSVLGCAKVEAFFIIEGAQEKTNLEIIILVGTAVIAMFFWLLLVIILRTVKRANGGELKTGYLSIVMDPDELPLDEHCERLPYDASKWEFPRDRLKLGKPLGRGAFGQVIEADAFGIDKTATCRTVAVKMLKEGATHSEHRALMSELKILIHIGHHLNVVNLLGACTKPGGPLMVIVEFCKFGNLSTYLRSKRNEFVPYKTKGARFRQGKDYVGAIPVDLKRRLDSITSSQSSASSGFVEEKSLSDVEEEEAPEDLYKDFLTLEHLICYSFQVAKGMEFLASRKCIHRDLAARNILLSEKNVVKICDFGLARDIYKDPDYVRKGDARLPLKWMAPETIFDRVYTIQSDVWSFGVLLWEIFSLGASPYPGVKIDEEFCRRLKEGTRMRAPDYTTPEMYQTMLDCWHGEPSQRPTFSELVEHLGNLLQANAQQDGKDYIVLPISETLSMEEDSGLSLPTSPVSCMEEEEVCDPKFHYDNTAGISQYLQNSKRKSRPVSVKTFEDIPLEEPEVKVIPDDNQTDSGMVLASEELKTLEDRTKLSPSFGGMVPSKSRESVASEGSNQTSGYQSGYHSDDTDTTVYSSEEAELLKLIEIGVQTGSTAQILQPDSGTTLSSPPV
Receptor tyrosine-protein kinase erbB-2 (Homo sapiens), sequence (P04626 whole entry, the tested form may be a part): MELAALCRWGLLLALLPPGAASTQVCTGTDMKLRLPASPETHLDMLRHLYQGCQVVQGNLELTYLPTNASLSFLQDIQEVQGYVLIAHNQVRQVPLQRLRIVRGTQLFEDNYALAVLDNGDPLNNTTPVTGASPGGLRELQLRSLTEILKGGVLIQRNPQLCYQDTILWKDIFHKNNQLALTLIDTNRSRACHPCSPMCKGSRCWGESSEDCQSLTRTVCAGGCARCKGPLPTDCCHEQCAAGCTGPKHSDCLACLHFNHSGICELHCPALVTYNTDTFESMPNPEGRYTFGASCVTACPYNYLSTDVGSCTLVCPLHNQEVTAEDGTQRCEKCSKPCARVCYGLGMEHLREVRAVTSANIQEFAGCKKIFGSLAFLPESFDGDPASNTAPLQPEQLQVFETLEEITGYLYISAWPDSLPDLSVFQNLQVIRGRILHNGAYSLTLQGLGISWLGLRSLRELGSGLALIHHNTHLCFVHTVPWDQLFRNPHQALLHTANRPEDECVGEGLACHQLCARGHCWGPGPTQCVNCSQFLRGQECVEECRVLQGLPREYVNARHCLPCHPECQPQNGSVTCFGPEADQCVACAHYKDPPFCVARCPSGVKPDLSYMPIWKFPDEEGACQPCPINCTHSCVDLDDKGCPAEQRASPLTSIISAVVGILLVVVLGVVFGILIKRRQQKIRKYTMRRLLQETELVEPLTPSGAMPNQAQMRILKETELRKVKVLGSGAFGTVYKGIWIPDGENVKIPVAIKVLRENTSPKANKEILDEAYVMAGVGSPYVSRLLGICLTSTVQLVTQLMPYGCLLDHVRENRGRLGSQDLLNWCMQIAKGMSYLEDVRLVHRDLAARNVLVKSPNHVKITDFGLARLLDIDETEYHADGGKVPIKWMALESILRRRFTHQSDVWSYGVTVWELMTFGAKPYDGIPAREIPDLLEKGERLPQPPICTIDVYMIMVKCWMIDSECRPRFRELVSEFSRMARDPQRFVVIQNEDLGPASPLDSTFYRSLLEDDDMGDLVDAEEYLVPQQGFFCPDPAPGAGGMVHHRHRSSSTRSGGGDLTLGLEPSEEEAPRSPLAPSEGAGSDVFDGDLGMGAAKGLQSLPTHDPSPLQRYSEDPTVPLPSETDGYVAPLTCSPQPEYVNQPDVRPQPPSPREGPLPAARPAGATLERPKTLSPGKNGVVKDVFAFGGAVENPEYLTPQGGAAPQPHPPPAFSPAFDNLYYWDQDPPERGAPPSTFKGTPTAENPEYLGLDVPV

`CCNc1cc(-c2ccc(NC(=O)Nc3cccc(Cl)c3)cc2C(F)(F)F)ccn1`: the inhibition stood at 94.9% in series [1] and 82.7% in series [2]. Besides, the inhibition entry in [3] is “Active”. The Activity result is “Non-Toxic” with BT-483; 88% in series [4]; 98% in series [5]; 98% in [6]; 80% in [7]; 76% in series [8]. In addition, the Activity in [9] is 98%; in [10], 64%; in [11] it was 76%; in series [12] it was 75%; in series [13], 96%; in series [14], 67%. The Activity was found to be 62% in series [15]; 86% in series [16]; 60% in [17]; 71% in [18]; 86% in [19]; 76% in series [20].
